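Test compounds were applied to cells in 96-well plates for 48 hours at 5 doses. GI50 marks 50% less growth. TGI: total growth inhibition.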
How the values were obtained:
Experiment in all cases: inhibition of tumour cell growth, NCI panel, 48 h
[1] = system: COLO 205 colon
[2] = system: HCT-116 colon
[3] = system: HOP-62 NSCLC
[4] = system: HS 578T breast
[5] = system: MOLT-4 leukemia
[6] = system: NCI-H23 lung
[7] = system: NCI-H522 lung
[8] = system: OVCAR-5 ovarian
[9] = system: SF-295 CNS
[10] = system: SNB-19 CNS

Row | SMILES | GI50 [1] | TGI [1] | GI50 [2] | GI50 [3] | TGI [3] | GI50 [4] | TGI [4] | GI50 [5] | TGI [5] | GI50 [6] | TGI [6] | GI50 [7] | TGI [7] | GI50 [8] | TGI [8] | GI50 [9] | TGI [9] | GI50 [10] | TGI [10] | TGI [2]
1 | CCN(CC)CCCCNc1c2ccccc2[n+](C)c2c1[nH]c1ccccc12 | 0.189 µM | 0.983 µM | 0.356 µM | 0.683 µM | 6.15 µM | 0.238 µM | 0.865 µM | 0.269 µM | 23.8 µM | 0.221 µM | 1.07 µM | 0.0796 µM | 0.217 µM | 1 µM | 11.5 µM | 0.542 µM | 4.31 µM | 0.269 µM | 2.03 µM | 
2 | COc1cc(CSc2nc3ccc(C)cc3c(=O)n2-c2ccccc2)cc(OC)c1OC | 0.576 µM | 3.97 µM | 1.03 µM | 2.48 µM | > 100 µM | 2.16 µM | > 100 µM | 3.85 µM | > 100 µM | 6.97 µM | > 100 µM | 1.44 µM | > 25.3 µM | 6.26 µM | > 100 µM | 2.41 µM | 48 µM | 13.8 µM | > 100 µM | > 100 µM
3 | CN(O)c1nc(N(C)O)nc(N2CCOCC2)n1 | 3.69 µM | > 100 µM | 1.07 µM | 2.27 µM | > 100 µM | 64.2 µM | > 100 µM | 7.09 µM | > 100 µM | 12.4 µM | > 100 µM | 4.03 µM | > 100 µM | 41.2 µM | > 100 µM | 2.57 µM | > 100 µM | 7.35 µM | > 100 µM | > 100 µM
4 | COc1ccc(C(=O)c2cc(OC)c(OC)c(OC)c2)cc1OC(=O)CCl | 1.21 µM | 15.6 µM | 0.0205 µM | 0.224 µM | > 100 µM | 0.0281 µM | > 100 µM | < 0.0209 µM | > 100 µM | 0.0653 µM | > 100 µM | 0.0196 µM | > 100 µM | 3.61 µM | > 100 µM | 0.0456 µM | > 100 µM | < 0.0283 µM | > 100 µM | > 100 µM
5 | COc1cc(C(=O)O[C@H](C(=O)NCCCCCNC(=O)[C@@H](OC(=O)c2cc(OC)cc3c(C)cccc23)[C@]2(C)CO2)[C@]2(C)CO2)c2cccc(C)c2c1 | 0.286 µM |  | 0.884 µM | < 0.01 µM | 0.157 µM | 0.943 µM | 6.51 µM | < 0.01 µM | > 100 µM | 0.179 µM | 0.665 µM | 0.565 µM | > 22.3 µM | 1.52 µM | 5.61 µM | 2.5 µM | 6.75 µM | 0.93 µM | > 20.4 µM | 3.68 µM
6 | O=C(O)C(/C=C/c1ccccc1)c1ccccc1 (configuration not stated) |  | > 100 µM |  |  | > 100 µM |  | > 100 µM |  | > 100 µM |  | > 100 µM |  | > 100 µM |  | > 100 µM |  | > 100 µM |  | > 100 µM | > 100 µM
7 | CC(C)N(Cc1ccccc1)c1c(S)ssc1=S | 1.56 µM | 4.26 µM | 2.72 µM | 4.24 µM | > 100 µM | 0.861 µM | 7.08 µM | 1.69 µM | 7.39 µM | 3.83 µM | 96.3 µM | 2.06 µM | > 100 µM | 3.56 µM | > 100 µM | 1.19 µM | 11.7 µM | 3.76 µM | > 100 µM | 26.8 µM
8 | COc1ccc(-c2cn(-c3cc(OC)c(OC)c(OC)c3)c(SCc3ccccc3)n2)cc1OC | > 100 µM | > 100 µM | > 100 µM | > 100 µM | > 100 µM | > 100 µM | > 100 µM | 73.3 µM | > 100 µM | > 100 µM | > 100 µM | > 100 µM | > 100 µM | > 100 µM | > 100 µM | > 100 µM | > 100 µM | > 100 µM | > 100 µM | > 100 µM
9 | COc1cc([N+](=O)[O-])c(OC)cc1-c1nc2sc(Cl)cn2c1/C(N)=N/C(=N)N | 2.71 µM | 6.67 µM | 2.41 µM | 6.32 µM | 17.3 µM | 2.72 µM | 6.8 µM | 3.09 µM | > 100 µM | 3.43 µM | 10.8 µM | 2.35 µM | 5.49 µM | 19.7 µM | 45.4 µM | 9.94 µM | 36.7 µM | 3.91 µM | > 100 µM | 6.41 µM
10 | Fc1ccc2c(c1)C1=NN(c3ccccc3)C(F)C1CO2 (configuration not stated) |  | 30.9 µM | 10.7 µM | 19 µM | > 50 µM | 10.6 µM | 28.1 µM | > 50 µM | > 50 µM | 11.2 µM | 26.7 µM | > 50 µM | > 50 µM | 18.1 µM | > 50 µM | 6.45 µM | 17.1 µM | 26.6 µM | > 50 µM | > 50 µM
11 | COc1cc2ccc(/C=C\[N+](=O)[O-])cc2cc1OC |  | 15.9 µM |  |  | 16.1 µM |  | 37.8 µM |  | 19.1 µM |  | 6.98 µM |  | 3.4 µM |  | 30.3 µM |  | 33.8 µM |  | 27.7 µM | 5.16 µM
12 | O=C(CCCCCCCCC(=O)N/N=C\c1ccccc1O)N/N=C\c1ccccc1O | 2.63 µM | > 35.2 µM | 0.459 µM | 0.418 µM | 4.72 µM | 3.55 µM | 41.6 µM | 0.338 µM | 7.37 µM | 0.75 µM | 21.9 µM | 0.257 µM | > 100 µM | 3.35 µM | > 90.3 µM | 1.07 µM | 31.7 µM | 0.763 µM | > 59.4 µM | 15.2 µM
13 | Cc1ccc(Nc2n[nH]c(=S)s2)cc1C |  | > 100 µM |  |  | > 100 µM |  | > 100 µM |  | > 100 µM |  | > 100 µM |  | > 100 µM |  | > 100 µM |  | > 100 µM |  | > 100 µM | > 100 µM
14 | O=C(O)CNC(=O)c1ccc(-c2ccccc2)cc1 |  | > 100 µM |  |  | > 100 µM |  | > 100 µM |  | > 100 µM |  | > 100 µM |  | > 100 µM |  | > 100 µM |  | > 100 µM |  | > 100 µM | > 100 µM
15 | C#Cc1c(F)ccc2cc(O)cc(-c3ncc4c(N5CC6CCC(C5)N6)nc(OC[C@@]56CCCN5C[C@H](F)C6)nc4c3F)c12 | 16.1 µM | 45.1 µM | 2.62 µM | 2.18 µM | 22.4 µM | 8.47 µM | 28.2 µM | 8.72 µM | 28.4 µM | 1.94 µM | 15.1 µM | 14.5 µM | 31.3 µM | 2.51 µM | 13.5 µM | 15.9 µM | 32 µM | 13.4 µM | 26.3 µM | 14 µM

From PubChem BioAssay (NCI)
